Laboratory results: US8609651B2, “Pharmaceutical compositions of benzodiazepines and method of use thereof” (Jazz Pharmaceuticals, Inc., priority 2006, dated 2013)
In brackets after ≈: the same amount, converted by molar mass. Where two headings read alike, the source gives them in different places.

Experiments:
[1] = Human pharmacokinetic study (oral, intravenous, intranasal cross-over); conditions: after 1 mg clonazepam
Description: The human pharmacokinetics, safety, and tolerability of the benzodiazepines compositions of the present invention formulated for intranasal delivery for therapeutic applications are evaluated using standard clinical procedures. Benzodiazepine compositions formulated for intranasal delivery are provided, for example, for application by the participants to intranasal mucosa.
A primary objective of initial studies in humans is to determine and compare pharmacokinetic profiles of three dosage forms of a benzodiazepine: oral, i.v., and intranasal, following single administration. An example of such a study in humans is a cross-over study performed in 12 healthy male volunteers. Plasma and urine level of clonazepam and 7-amino-clonazepam are determined, for example, using HPLC and UV detection. […] Further the initial studies in humans are used to determine local tolerability of intranasal formulation using questionnaire and the Visual Analog Scale (VAS). VAS is a validated instrument that has been used in numerous studies to quantify subjective […]. In addition, cognitive, sleepiness and mood effects are evaluated using questionnaires and scales (see, e.g., Example 10 below). Further, attention and vigilance may be evaluated using, for example, LEEDS Psychomotor Multiple Choice Reaction Time (MCRT) testing.
A human pharmacokinetic study was carried out as described in Example 8.
15 young, healthy male volunteers received a single dose of 1 mg clonazepam by oral, intravenous and intranasal routes in a three-period cross-over design.

[2] = Drug recovery, degradation and binding to nasal sheep mucosa; format: in vitro ADME; conditions: sheep nasal mucosa (excised tissue) in buffer, 37° C., read-out: % recovery in the presence of nasal sheep mucosa
Description: (i) Drug recovery, degradation and binding to nasal sheep mucosa: The effect of drug recovery, degradation and binding to sheep nasal mucosa was determined. Briefly, a known surface area (approx. 1 cm^2) of sheep nasal mucosa was added into a glass vial containing a known concentration (10 μg/mL) of each drug prepared in the receiver fluid (10% ethanol in pH 6 buffer). The content of the vial was allowed to equilibrate at 37° C. over a period of 48 h. At 24 h intervals, a sample was removed and assayed via HPLC. The percentage of drug recovered was calculated using Equation 4: % drug recovered=(drug concentration at t=Y/drug concentration at t=Z)×100 (Equation 4)
where, Y=specific time point at 37° C. (in the presence of nasal sheep mucosa); and Z=specific time point at 37° C. (in the absence of nasal sheep mucosa).
In addition to the stability against heat degradation, the effect of drug binding or degradation in the presence of nasal sheep mucosa was also determined (Table 6).

[3] = in vivo; cited from earlier work
[4] = Solubility of benzodiazepines in DEGEE (Transcutol) at 25° C. and −16° C.; conditions: organic solvent or mixture, thermodynamic from solid
Description: The solubilities of several other benzodiazepines were measured in DEGEE (diethylene glycol monoethyl ether, transcutol) by the techniques of Example 1. Initially, 10 mg of the drug was loaded in the glass vial and 130-μL of DEGEE was added, and the samples were sonicated for 10 minutes. […] Samples were stored at −16° C. and 25° C. overnight, and centrifuged (5000 rpm, 2 minutes, −10° C. and 23° C. for the −16° C. and 25° C. samples, respectively). […] Clonazepam was measured by UV at 350 nm; all others at 300 nm.

[5] = Saturated solubility in receiver fluid systems (HPLC); conditions: 37 °C, thermodynamic from solid
Description: Following the stability studies, a suitable receiver fluid was developed in order to ensure that sink conditions for tested drug were such that the drug release was limited by the solubility of the drug in the receiver fluid. […] Briefly, drug was saturated into different receiver fluid systems by adding excess drug and allowed to stir with a magnetic flea over a period of 2 h at 37° C. Each saturated solution was then filtered using a 0.2 μm syringe filter and the resultant solution was assayed via HPLC.
Calibration curves for clonazepam were constructed between 0.2 to 10 μg/mL with appropriate replicates to ensure repeatability and linearity.
Standards were prepared in receiver fluid (10% ethanol in buffer 6). […] The filtration at room temperature was performed as quickly as possible to minimize any drug precipitation as the temperature dropped from 37° C. during filtration.

[6] = Viscosity of solvent matrices (Brookfield DV-I viscometer); format: physicochemical; conditions: solvent matrix without drug
Description: (§1) Fourteen representative solvent matrices used for clonazepam formulations were tested for spray pattern and compared with water. The solvent mixtures were made up, spiked with minute amounts of Coomassie Brilliant Blue Dye and 100 μL were subsequently filled into Pfeiffer unit-dose devices (Pfeiffer of America, Princeton, N.J.). To measure the spray pattern, the devices were actuated below a sheet of paper that was located 3 cm above the spray nozzle. All measurements were made at ambient room temperature (20-25° C.). The smallest (Dmin) and the largest (Dmax) diameter of the blue pattern formed on the sheet of paper were measured and the results used to calculate the Dmax/Dmin ratio, the area of the pattern and the average spray angle. The plume area at 3 cm was calculated using the equation for the area of an ellipse using the half of the two diameters as the ellipse radii. Viscosity of all formulations was measured using Brookfield DV-I viscometer (Brookfield Engineering Laboratories, Inc., Middleboro, Mass.).

[7] = Spray pattern of solvent matrices (plume area, spray angle, Dmax/Dmin); format: physicochemical; conditions: 100 μL from Pfeiffer unit-dose device, paper 3 cm above nozzle, 20-25° C.
Description: as §1

[8] = Effect of temperature on viscosity (Gilmont falling ball viscometer); format: physicochemical
Description: As weather may dictate substantially different conditions of use, the effect of temperature on viscosity was determined. A Gilmont falling ball viscometer was filled with diethylene glycol monoethyl ether and calibrated for several hours at each temperature. At −17° C., 8° C., 23° C. and 40° C. the measured viscosity was 6.6 cP, 5.4 cP, 3.8 cP and 3.1 cP, respectively.

In the case of Nc1ccc2c(c1)C(c1ccccc1Cl)=NCC(=O)N2 [7-Amino-clonazepam], the “mean AUCt of metabolite” value ([1]; intranasal) is reported as 16.9 ng·h/mL, the “mean Cmax of metabolite” value ([1]; intranasal) is reported as 1.17 ng/mL and the “mean AUCt of metabolite” value ([1]; intravenous) is reported as “approximately 30 ng·h/mL”. For the same compound, the “mean Cmax of metabolite” value ([1]; intravenous) was “approximately 2 ng/mL”, the “mean AUCt of metabolite” value ([1]; oral) was “approximately 30 ng·h/mL” and the “mean Cmax of metabolite” value ([1]; oral) was “approximately 2 ng/mL”.
With CN1C(=O)CN=C(c2ccccc2)c2cc(Cl)ccc21 [Diazepam] the recovery at 24 h, 10 μg/mL ([2]; buffer pH 5 (10% ethanol)) was 97.6%, the recovery at 48 h, 10 μg/mL ([2]; buffer pH 5 (10% ethanol)) was 95.6% and the recovery at 24 h, 10 μg/mL ([2]; buffer pH 6 (10% ethanol)) was 98%. The recovery at 48 h, 10 μg/mL ([2]; buffer pH 6 (10% ethanol)) was 125%, the recovery at 24 h, 10 μg/mL ([2]; buffer pH 7 (10% ethanol)) was 97.6% and the recovery at 48 h, 10 μg/mL ([2]; buffer pH 7 (10% ethanol)) was 94.7%. For the same compound, the “roughly equal dose (potency equivalence)” value [3] was about 5.0 mg.
O=C1Nc2ccc(Cl)cc2C(c2ccccc2Cl)=NC1O (stereo not shown) [Lorazepam] showed a recovery at 24 h, 10 μg/mL ([2]; buffer pH 5 (10% ethanol)) of 96.9%, a recovery at 48 h, 10 μg/mL ([2]; buffer pH 5 (10% ethanol)) of 94.9% and a recovery at 24 h, 10 μg/mL ([2]; buffer pH 6 (10% ethanol)) of 96.8%. It also gave a recovery at 48 h, 10 μg/mL ([2]; buffer pH 6 (10% ethanol)) of 97%, a recovery at 24 h, 10 μg/mL ([2]; buffer pH 7 (10% ethanol)) of 96.2% and a recovery at 48 h, 10 μg/mL ([2]; buffer pH 7 (10% ethanol)) of 91.7%. The half-life [3] was 8 to 24 h, the “roughly equal dose (potency equivalence)” value [3] was about 1.0 mg and the solubility ([4]; 25 °C) was over 110000 µg/mL. The solubility ([4]; -16 °C) was over 130000 µg/mL, the solubility at 2 h ([5]; pH 6, aqueous buffer, buffer pH 6, 37° C.) was 78.5 µg/mL (≈ 244 µM) and the solubility at 2 h ([5]; pH 6, aqueous with cosolvent or surfactant or cyclodextrin, 20% ethanol in buffer pH6, 37° C.) was 309 µg/mL (≈ 962 µM). For the same compound, the solubility at 2 h ([5]; pH 6, aqueous with cosolvent or surfactant or cyclodextrin, receiver solution, 10% ethanol in buffer pH 6, 37° C.) was 126 µg/mL (≈ 392 µM).
With O [Water] the Avg. viscosity [6] was 1.0 cP, the “Ratio Dmax/Dmin” value [7] was 1.10 and the Spray angle ([7]; average angle calculated from diameters) was 73.1 °. For the same compound, the “Plume area at 3 cm” value ([7]; ellipse area from Dmax and Dmin) was 15.52 cm^2.
For CCOCCOCCO [diethylene glycol monoethyl ether], the viscosity ([8]; 8° C.) was 5.4 cP, the viscosity ([8]; 23° C.) was 3.8 cP and the viscosity ([8]; 40° C.) was 3.1 cP. For the same compound, the viscosity ([8]; −17° C.) was 6.6 cP.
